Patent US6488912B1, “Treatment of dentoalveolar infections with taurolidine and/or taurultam” (Ed. Geistlich Soehne AG fuer Chemische Industrie, priority 1992, dated 2002)

Tests used:
dentoalveolar infections = assay: Controlled clinical trial, taurolidine vs conventional therapy, all 6 indications pooled: target variables; format: in vivo, patients
Method: (§1) The in-vivo tests were carried out at the Clinic for Maxillofacial Surgery, Munich University between 1989 and 1992. In accordance with modern biometric principles the study was planned as a controlled clinical trial, i.e. it was conducted according to a prospective, protective, randomized, monocentre and simple blind design.
The following 6 indications examined were selected specifically on the basis of their incidence and clinical relevance.
(§2) The test substances investigated were 4 different galenic presentation forms of the active component taurolidine and 4 conventional finished pharmaceuticals.
(§3) For each of the 6 indications investigated an exact therapeutic procedure was fixed. The surgical management was carried out according to the individual situation in the usual manner. Tables 1 and 2 show the antimicrobial therapy regimens defined for patient groups A (Taurolidine group) and B (Standard group). It is evident, that the only difference, with the same quantity of substance applied in the same form, was the choice of preparation.
(§4) For critical examination of the effectiveness of the different pharmaceuticals concerning therapeutic success and total treatment time clinical parameters reflecting the progress of recovery were controlled and documented at every session. The following 6 target variables were defined and evaluated by a uniform scale (0=none to 4=very strong):
(§5) The score-level 5 (total) was given at the moment of complete remission and describes consequently the final point of treatment.
(§6) 200 cases were treated in each indication group, the total number amounted to 1,200. The distribution into the two therapy regimens was realised by random sampling. Statistical evaluations were made by means of testing methods described in customary literature.

[1] = system: Alveolitis sicca dolorose; assay: Controlled clinical trial, total treatment time to complete remission: alveolitis; format: in vivo, patients; conditions: TAUR: T-Irrigation fluid 3% + T-Dental emulsion 3%, STANDARD: NaCl 0.9% + AUREOMYCIN Ointment 3%, n=100 per group
Method: as §1, §2, §3, §4, §5, §6

Gangrene = assay: Controlled clinical trial, total treatment time to complete remission: gangrene; format: in vivo, patients; conditions: TAUR: T-Irrigation fluid 3% + T-Liquid gel 3%, STANDARD: H2O2 3% + CHKM Solution, n=100 per group
Method: as §1, §2, §3, §4, §5, §6

Parodontitis marginalis = assay: Controlled clinical trial, total treatment time to complete remission: parodontitis; format: in vivo, patients; conditions: TAUR: T-Liquid gel 3% + T-Dental emulsion 3%, STANDARD: DONTISOLON Ointment M, n=100 per group
Method: as §1, §2, §3, §4, §5, §6

Pericoronitis = assay: Controlled clinical trial, total treatment time to complete remission: pericoronitis; format: in vivo, patients; conditions: TAUR: T-Irrigation fluid 3% + T-Dental emulsion 3%, STANDARD: NaCl 0.9% + AUREOMYCIN Ointment 3%, n=100 per group
Method: as §1, §2, §3, §4, §5, §6

Abscess = assay: Controlled clinical trial, total treatment time to complete remission: abscess; format: in vivo, patients; conditions: TAUR: T-Irrigation fluid 3% + T-Dental emulsion 3%, STANDARD: NaCl 0.9% + AUREOMYCIN Ointment 3%, n=100 per group
Method: as §1, §2, §3, §4, §5, §6

Infection Prophylaxis = assay: Controlled clinical trial, total treatment time to complete remission: infection prophylaxis; format: in vivo, patients; conditions: TAUR: T-Dental gel 2%, STANDARD: CHLORHEXAMED Dental gel 1%, n=100 per group
Method: as §1, §2, §3, §4, §5, §6

[2] = background statement; cited from earlier work
[3] = system: human desmodontal fibroblasts; conditions: cited from earlier work
[4] = all 6 indications, n=600 per group, maximum
[5] = all 6 indications, n=600 per group, mean
[6] = all 6 indications, n=600 per group, minimum

Compound: O=S1(=O)CCN(CN2CCS(=O)(=O)NC2)CN1 [TAUR, taurolidine]
- PAIN TIME, Maximum (dentoalveolar infections; [4]): 14 days
- PERCUSSION TIME, Maximum (dentoalveolar infections; [4]): 13 days
- PRESSURE PAIN TIME, Maximum (dentoalveolar infections; [4]): 15 days
- SECRETION TIME, Maximum (dentoalveolar infections; [4]): 15 days
- SWELLING TIME, Maximum (dentoalveolar infections; [4]): 14 days
- PERCUSSION TIME, Mean (dentoalveolar infections; [5]): 1.9 days
- PRESSURE PAIN TIME, Mean (dentoalveolar infections; [5]): 5.3 days
- SECRETION TIME, Mean (dentoalveolar infections; [5]): 3.9 days
- SWELLING TIME, Mean (dentoalveolar infections; [5]): 4.5 days
- PAIN TIME, Minimum (dentoalveolar infections; [6]): 1 days
- PERCUSSION TIME, Minimum (dentoalveolar infections; [6]): 1 days
- PRESSURE PAIN TIME, Minimum (dentoalveolar infections; [6]): 1 days
- SECRETION TIME, Minimum (dentoalveolar infections; [6]): 1 days
- SWELLING TIME, Minimum (dentoalveolar infections; [6]): 1 days
- effectiveness against standard therapy (more rapid recovery) (dentoalveolar infections; all 6 indications, p<0.0001): superior effectiveness
- side effects after application (dentoalveolar infections; during the acute period of inflammation): slight pain for some minutes after application
- optional antibiotics and analgetics required/administered (dentoalveolar infections; taurolidine group vs standard group, p=0.007 resp. p=0.01): significantly less
- pain-free earlier than under conventional treatment (average) (dentoalveolar infections; taurolidine vs conventional treatment): 2 days
- ALVEOLITIS, total treatment TIME (remission), Maximum ([1]; maximum): 15 days
- ALVEOLITIS, total treatment TIME (remission), Mean ([1]; mean): 5.6 days
- ALVEOLITIS, total treatment TIME (remission), Minimum ([1]; minimum): 3 days
- GANGRENE, total treatment TIME (remission), Maximum (Gangrene; maximum): 10 days
- GANGRENE, total treatment TIME (remission), Mean (Gangrene; mean): 5.0 days
- GANGRENE, total treatment TIME (remission), Minimum (Gangrene; minimum): 2 days
- PARODONTITIS, total treatment TIME (remission), Maximum (Parodontitis marginalis; maximum): 14 days
- PARODONTITIS, total treatment TIME (remission), Mean (Parodontitis marginalis; mean): 5.1 days
- PARODONTITIS, total treatment TIME (remission), Minimum (Parodontitis marginalis; minimum): 2 days
- PERICORONITIS, total treatment TIME (remission), Maximum (Pericoronitis; maximum): 12 days
- PERICORONITIS, total treatment TIME (remission), Mean (Pericoronitis; mean): 5.1 days
- PERICORONITIS, total treatment TIME (remission), Minimum (Pericoronitis; minimum): 2 days
- ABSCESS, total treatment TIME (remission), Maximum (Abscess; maximum): 13 days
- ABSCESS, total treatment TIME (remission), Mean (Abscess; mean): 5.5 days
- ABSCESS, total treatment TIME (remission), Minimum (Abscess; minimum): 2 days
- INFECT. PROPHYLAXIS, total treatment TIME (remission), Maximum (Infection Prophylaxis; maximum): 13 days
- INFECT. PROPHYLAXIS, total treatment TIME (remission), Mean (Infection Prophylaxis; mean): 7.5 days
- INFECT. PROPHYLAXIS, total treatment TIME (remission), Minimum (Infection Prophylaxis; minimum): 3 days

Compound: Neomycin
- allergy rate [2]: 15-30%

Compound: [H]/N=C(\N/C(=N/[H])NCCCCCCNC(=N)NC(=N)Nc1ccc(Cl)cc1)Nc1ccc(Cl)cc1 [Chlorhexidine]
- cell damage [3]: accelerated ageing and a cytopathological effect
